Test in all cases: growth of human tumour cells (NCI), 48 h
Experiment [1] concerns HCT-116.
In experiment [2] the test system is LOX IMVI.
Experiment [3] deals with EKVX.
For experiment [4], the system named is CCRF-CEM.
Experiment [5] has as its system OVCAR-5.
Experiment [6] deals with A498.
In experiment [7] the test system is 786-0.
The subject of experiment [8] is U-251.
In experiment [9] the test system is SW-620.
Experiment [10] deals with CAKI-1.
In experiment [11] the test system is MOLT-4.
The test system of experiment [12] is ACHN.
Experiment [13] concerns SN12C.
Experiment [14] relates to NCI-H23.
The subject of experiment [15] is SR.
For experiment [16], the system named is SNB-75.
Experiment [17] has as its system NCI-H460.
Experiment [18] concerns MDA-MB-231.
In experiment [19] the test system is PC-3.

This is an account of results in ChEMBL document CHEMBL1201862, “PubChem BioAssay data set” (2004).

Each structure is given as a SMILES string.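 Method: 48-hour compound exposure of cells in 96-well plates, five concentrations, linear interpolation of endpoints. Here, GI50 denotes the concentration required for 50% inhibition of growth.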 The source made the active and inactive calls. Rule as the data show it: active = GI50 up to about 1.1 µM and inactive = higher. Where only a bound is given, the exact number is not on record here.

On to `COC(=O)CCC(=O)CC1CC(=O)C2CCCN12` (centres undefined), for which the GI50 in experiment [1], in [2], in [3], in experiment [4], in experiment [5] and in [6] was > 100 µM (inactive) in each case. Further, the GI50 in [7], in [8], in [9], in experiment [10], in [11] and in experiment [12] was > 100 µM (inactive) throughout. For the same compound, the GI50 in [13], in experiment [14], in [15], in experiment [16] and in [17] was > 100 µM (inactive) throughout.

With `CC(=O)O[C@H]1C(=O)[C@@]2(C)C(C(OC(=O)c3ccccc3)[C@]3(O)CC(OC(=O)C(O)C(NC(=O)c4ccc(C(F)(F)F)cc4)c4ccccc4)C(C)=C1C3(C)C)[C@]1(OC(C)=O)CO[C@@H]1C[C@@H]2O` (some centres undefined), the GI50 in experiment [1] was 0.05 µM (active); in experiment [2], 0.156 µM (active); in [4], 0.175 µM (active); in experiment [5] it was 0.158 µM (active); in [6] it was 1.19 µM (inactive); in [7], 0.64 µM (active). The GI50 in [8] was 0.156 µM (active); in experiment [9], 0.0552 µM (active); in [10] it was 0.076 µM (active); in experiment [11] it was 0.0324 µM (active); in experiment [12], 1.9 µM (inactive); in experiment [13], 0.159 µM (active). Further, the GI50 is 0.136 µM (active) in [14], 0.0264 µM (active) in [15], 0.00375 µM (active) in experiment [16] and 0.103 µM (active) in [17].

Consider `O=C1NC2C(=O)N(Cc3ccccc3)C(=O)C2N1` (centres undefined), for which the GI50 in experiment [1], in [2], in experiment [3], in experiment [4], in experiment [5] and in experiment [6] was > 100 µM (inactive) each time. The GI50 in experiment [7], in experiment [8], in experiment [9], in experiment [10], in experiment [11] and in [12] was > 100 µM (inactive) in each case. The GI50 in experiment [13], in experiment [14], in [15], in experiment [16] and in experiment [17] was > 100 µM (inactive) throughout.

Turning to `O=C(/C=C(\O)C(=O)O)/C=C(\O)c1ccccc1Cl`, the GI50 in experiment [1], in [2], in [3], in [4], in [5] and in experiment [6] was > 100 µM (inactive) in each case. The GI50 in [7], in experiment [8], in experiment [9], in experiment [10], in experiment [11] and in [12] was > 100 µM (inactive) in each case. The GI50 was > 100 µM (inactive) in experiment [13]; > 100 µM (inactive) in experiment [14]; > 100 µM (inactive) in experiment [15]; > 79.8 µM (inactive) in experiment [16]; > 100 µM (inactive) in [17].

On to `CCC[S+]([O-])c1nc(COC(=O)NC)c(COC(=O)NC)n1C` (centres undefined), for which the GI50 in experiment [1], in experiment [2], in experiment [3], in [4], in experiment [5] and in [6] was > 100 µM (inactive) each time. For the same compound, the GI50 in [7], in [8], in [9], in [10], in experiment [11] and in experiment [13] was > 100 µM (inactive) in each case. For the same compound, the GI50 in [14], in experiment [15], in [16] and in experiment [17] was > 100 µM (inactive) in each case.

As for `CCOC(=O)CCC1(C(=O)OCC)CCCC1=O` (centres undefined), the GI50 in [1] was 68.4 µM (inactive); in experiment [2], 47.6 µM (inactive); in experiment [3], > 100 µM (inactive); in [4], > 100 µM (inactive); in [5], > 100 µM (inactive); in experiment [6] it was > 100 µM (inactive). In addition, the GI50 in experiment [7], in [8], in experiment [10], in experiment [11], in experiment [12] and in [13] was > 100 µM (inactive) throughout. Moreover, the GI50 in experiment [14] is > 100 µM (inactive); in experiment [15] it was 25.4 µM (inactive); in experiment [16] it was > 100 µM (inactive); in [17], > 100 µM (inactive).

Regarding `C=CCNC(=O)/C=C\C(=O)O`, the GI50 in experiment [1], in experiment [2], in [3], in experiment [4], in [5] and in experiment [6] was > 100 µM (inactive) in each case. The GI50 in [7], in [8], in experiment [9], in [10], in experiment [11] and in experiment [12] was > 100 µM (inactive) in each case. Further, the GI50 in experiment [13], in [14], in [15], in [16] and in experiment [17] was > 100 µM (inactive) in each case.

For `CC1CC(C)C2OC2(C)C[C@H](C)C(=O)NC(C)C(=O)N(C)[C@H](Cc2c(Br)[nH]c3ccccc23)C(=O)N[C@@H](c2ccc(O)cc2)CC(=O)O1` (some centres undefined), the GI50 is 0.0396 µM (active) in experiment [1]; 0.0466 µM (active) in experiment [2]; 2.02 µM (inactive) in experiment [3]; 0.0417 µM (active) in [4]; 0.824 µM (active) in experiment [5]; 0.522 µM (active) in experiment [6]. For the same compound, the GI50 in experiment [7] is 1.43 µM (inactive); in experiment [8], 0.0404 µM (active); in experiment [9] it was < 0.0262 µM (active); in [10], 1.09 µM (active); in experiment [11], 1.34 µM (inactive); in experiment [12], 2.16 µM (inactive). Moreover, the GI50 in experiment [13] is 0.776 µM (active); in [14] it was 0.902 µM (active); in [15], 0.277 µM (active); in [16], 0.142 µM (active); in [17] it was 0.0388 µM (active).

With `O=[N+]([O-])/C(C(Cl)=C(Cl)Cl)=C(\N1CCOCC1)n1nnc2ccccc21`, the GI50 was 18.7 µM (inactive) in experiment [1]; 17.9 µM (inactive) in experiment [3]; 21.1 µM (inactive) in experiment [5]; 16.9 µM (inactive) in experiment [6]; 22 µM (inactive) in experiment [7]; 16.7 µM (inactive) in [8]. Also, the GI50 in [18] is 17.5 µM (inactive); in experiment [10] it was 17.7 µM (inactive); in experiment [11] it was 33.5 µM (inactive); in [12], 18.7 µM (inactive); in [13], 19.3 µM (inactive); in experiment [14], 16.7 µM (inactive). Also, the GI50 is 17.5 µM (inactive) in [16], 19.4 µM (inactive) in experiment [17] and 17.1 µM (inactive) in experiment [19].

For `Oc1c(Cl)c(Cl)c(O)c(CCNc2nccs2)c1Cl`, the GI50 in experiment [1] was 7.66 µM (inactive); in [3] it was 14.3 µM (inactive); in [4] it was 3.74 µM (inactive); in experiment [5] it was 23.2 µM (inactive); in experiment [7], 16.9 µM (inactive); in experiment [8] it was 11.3 µM (inactive). Also, the GI50 is 3.3 µM (inactive) in experiment [9]; 0.119 µM (active) in experiment [18]; 11.4 µM (inactive) in [10]; 48.8 µM (inactive) in [11]; 6.44 µM (inactive) in experiment [12]; 19 µM (inactive) in experiment [13]. Moreover, the GI50 in [14] is 18.4 µM (inactive); in experiment [15], 4.81 µM (inactive); in experiment [16], 20.5 µM (inactive); in experiment [17], 20.8 µM (inactive); in experiment [19] it was 17.2 µM (inactive).

Regarding `COc1c(NC(C)=O)cc(C)cc1NC(C)=O`, the GI50 in experiment [1], in experiment [2], in experiment [3], in experiment [4], in experiment [6] and in experiment [7] was > 100 µM (inactive) throughout. Also, the GI50 in experiment [8], in experiment [9], in [10], in experiment [11], in experiment [12] and in [13] was > 100 µM (inactive) in each case. The GI50 in experiment [15], in experiment [16] and in experiment [17] was > 100 µM (inactive) throughout.

As for `CNC(=O)CNC(=O)CCC(=O)OC`, the GI50 in experiment [1], in experiment [5], in experiment [6], in experiment [7], in [8] and in experiment [9] was > 100 µM (inactive) throughout. Moreover, the GI50 in experiment [18], in [10], in experiment [11], in experiment [12], in experiment [13] and in experiment [14] was > 100 µM (inactive) throughout. The GI50 in experiment [17] and in experiment [19] was > 100 µM (inactive) each time.
